The subject of one data set is Wärmeschmerz der Maus. Briefly: Analgesic effect against heat pain in the mouse (hot plate, modified CHEN and BECKMAN). The format is in vivo. The note with it: oral (gavage), male Chbb:NMRI(SPF) mice, plate 52°C, dose giving 100 % prolongation of reaction time, read-out: Analgesie Maus "hot plate" [ED100]. The method, then:
2) Wirkung gegen den Wärmeschmerz der Maus
Die Prüfung erfolgte mit Hilfe einer Modifikation der Ver- suchsanordnung nach CHEN u. BECKMAN (Science 113, 631 (1951) an männlichen Chbb:NMRI(SPF)-Mäusen mit einem mittleren Gewicht von 20 g. Die "heiße Platte" bestand aus Aluminium und hatte eine Oberflächentemperatur von 52°C. ;
Die Prüfsubstanz wurde als Verreibung in 1 %iger-Methylzellulose (0,1 ml/10 g maus) per Schlundsonde beigebracht. Vor der Behandlung mit Prüfsubstanz wurden die Tiere im Abstand von 30 min. zweimal auf die heiße Platte gesetzt. Es wurde ihre individuelle Reaktionszeit ermittelt. Nach Gabe der Prüfsubstanz wurde in Abständen von 30 min. die Reaktionszeit erneut gemessen.
Aus der mit den verschiedenen Dosen der Prüfsubstanz erzielten gemittelten maximalen Verlängerung der Reaktionszeit wurde nach linearer Regressionsanalyse nach LINDER (s.o.) eine ED100 mit den Vertrauensgrenzen nach FIELLER (s.o.) als die Dosis berechnet, die zu einer 100 %igen Verlängerung der Reaktionszeit führte.

The test system of data set [1] is Entzündungsschmerz der Ratte. Briefly: Analgesic effect against inflammatory pain in the rat (RANDALL-SELITTO, yeast-inflamed paw, pain threshold). The format is in vivo. The note with it: oral (gavage), male Chbb:THOM rats, dose raising the pain threshold by 50 % versus controls. As to the method:
1) Wirkung gegen den Entzündungsschmerz der Ratte
Die Versuchsanordnung entsprach der von RANDALL-SELITTO (Arch. int. Pharmacodyn. 111, 409 (1957) angegebenen.
Männliche Chbb:THOM-Ratten mit einem Gewicht zwischen 100 und 130 g erhielten eine subplantare Injektion von 0,1 ml einer 5%igen Suspension von Hefezellen in 5,55 %iger Glukoselösun^g in eine Hinterpfote. […] 2 1/4 Stunden nach der Injektion des Phlogisticums erhielten die Tiere verschiedene Dosen der Prüfsubstanz als Verreibung in 1 %iger Methylzellulose (1 ml/100 g Tier) per Schlundsonde beigebracht. Kontrolltiere erhielten entsprechende Volumina des Vehikels. ― 90 bzw. 45 min nach Applikation der Prüfsubstanz (d.h. 3 Stunden nach der subplantaren Injektion der Hefesuspension) wurde bei den Ratten die Schmerzschwelle in g Auflagedruck/Pfote bestimmt.
Aus der nach den verschiedenen Dosen der Prüfsubstanz ge- i messenen Schmerzschwelle wurde nach linearer Regressionsanalyse nach LINDER (Statistische Methoden, 4. Aufl. pp. 148-162, Birkhäuser, Basel 1964) eine ED50 mit den Vertrauensgrenzen nach FIELLER (Quart. J. Pharm. Pharmacol. 17, 117 (1944) als jene Dosis ermittelt, die eine Anhebung der Schmerzschwelle um 50 % gegenüber der der Kontrollen bewirkte.

In data set [2] the test system is Körpertemperatur der Ratte. Briefly: Effect on body temperature of the rat (rectal temperature lowering). The format is in vivo. The note with it: oral (gavage), Chbb:THOM rats, dose lowering body temperature by 1,5°C, read-out: Körpertemperatursenkg. Ratte [ED-1,5°C]. The method, then: 3. Wirkung auf die Körpertemperatur der Ratte
Die Prüfung der temperatursenkenden Wirkung erfolgte durch; die Kontrolle des Verlaufes der rektal gemessenen Körper- temperatur von Chbb:THOM-Ratten mit einem Gewicht zwischen 125-150 g über im Rektum verweilende Thermoelemente. Die Prüfsubstanz wurde als Verreibung in 1 %iger Methylzellulose (1,0 ml/100 g Tier) per Schlundsonde beigebracht. Aus den nach Gabe der verschiedenen Dosen der Prüfsubstanz gewonnenen Werten für die mittlere maximale Temperatursenkung wurde nach linearer Regressionsanalyse nach LINDER (s.o.) eine ED-1,5°C als jene Dosis berechnet, die eine Senkung der Körpertemperatur um 1,5°C bewirkte.

Data set [3] can be described thus: Acute toxicity in the mouse. The note with it: in vivo, oral (gavage), Chbb:NMRI(SPF) mice of both sexes, deaths within 14 days, read-out: Akute Toxizität Maus [LD50]. The method, then:
4. Akute Toxizität an der Maus
Die Bestimmung der akuten Toxizität erfolgte an Chbb:NMRI (SPF)-Mäusen beider Geschlechter mit einem mittleren Gewicht von 20 g. Die Prüfsubstanz wurde als Verreibung in 1 %iger Methylzellulose (0,5 ml/10 g Tier) per Schlundsonde verabfolgt. Die Berechnung der LD50 erfolgte (soweit möglich) nach LITCHFIELD u. WILCOXON (J. Pharmacol. exp. Therap. 96, 99 (1949)) aus dem Prozentsatz der Tiere, die nach den verschiedenen Dosen innerhalb von 14 Tagen verstarben.

Molecules are shown by their SMILES. Read-outs that look alike come from different tables or passages of the source.

Take `COc1cc2sc(N)nc2cc1Cl` [2-Amino-5-chlor-6-methoxy-benzothiazol]: in the data set on Wärmeschmerz der Maus, the ED100 stood at 144 mg/kg. The ED50 (commonly the dose at which the effect has come halfway, by size or by number of responders) in data set [1] (0.75 h, 45 min after application, read-out: Analgesie Ratte nach RANDALL-SELITTO 45 min nach Appl. [ED50]) turned out to be 79 mg/kg; in data set [1] (1.5 h, 90 min after application, read-out: Analgesie Ratte nach RANDALL-SELITTO 90 min nach Appl. [ED50]), 80 mg/kg. Further, the ED (-1.5 degC) in data set [2] worked out at 101 mg/kg. In data set [3], the LD50 (as a rule, the dose at which mortality reaches 50%) at 336 h was 3050 mg/kg.

Values taken from patent EP0039809A2, “2-Amino-5-halogen-benzothiazoles, process for preparing them and medicines containing them” (Dr. Karl Thomae GmbH, priority 1980, dated 1981).
